According to patent US12216122B2, “Compositions and methods relating to detection, inhibition, and imaging of indoleamine 2,3-dioxygenase 1 (IDO1)” (Regeneron Pharmaceuticals, Inc., priority 2019, dated 2025):
Like-named read-outs stand apart in the source and are kept apart here. Numbered stars: 1 amine (or outer) side, 2 acyl side, 3 side chain; on linkers, the order of the positions; unused ones are H or OH. Bridge positions count the residues as written; N and C are the ends. Square brackets hold non-standard residues; d marks the D form. Triazole bridges read from a SMILES are 1,4-linked. Ends that are not written are not given here. Peptide text beside a SMILES is read from it. * marks the point of attachment. Biotinyl(3aR,4R,6aS) = O=C1N[C@@H]2[C@@H](CS[C@@H]2CCCCC(=O)*)N1; X6 = O=C([C@@H](Cc1ccc(Oc2ccccc2)cc1)N[*:1])[*:2]; Biotin = O=C1N[C@H]2[C@H](CS[C@H]2CCCCC(=O)*)N1; dTrp(1-Me) = Cn1cc(C[C@@H](N)C(=O)O)c2ccccc21; Trp(1-Me) = Cn1cc(C[C@H](N)C(=O)O)c2ccccc21; dPhe(4-Me) = Cc1ccc(C[C@@H](N)C(=O)O)cc1; Lys(N3) = [N-]=[N+]=NCCCC[C@H](N)C(=O)O; Phe(4-F) = N[C@@H](Cc1ccc(F)cc1)C(=O)O; X4 = O=C1NC2CS[C@@H](CCCCC(=O)*)C2N1; dTle = CC(C)(C)[C@@H](N)C(=O)O; AEEEA = NCCOCCOCCOCC(=O)O; Pra = C#CC[C@H](N)C(=O)O

Assays:
[1] = target: T1, His-tagged IDO1 human recombinant protein (Homo sapiens, UniProt P14902); assay: IDO1 ELISA (Affinity Assay): sandwich ELISA, biotinylated ligand immobilized on NEUTRAVIDIN plate; assay type: binding
T1 construct: purchased BPS Biosciences 71182
Method: Protocol: A black 96-well NEUTRAVIDIN® Coated High Binding Capacity plate (15510, Pierce) was coated with 2 μM biotinylated macrocyclic peptide ligand in TBS (25 mM Tris-HCl, 150 mM NaCl, pH 7.6) for 2 h at room temperature. The plate was aspirated and then washed with Wash Buffer (0.05% (v/v) TWEEN® 20 in PBS, 6×). His-tagged IDO1 human recombinant protein (71182, BPS Biosciences) was serially diluted in Wash Buffer (from 200 to 0 nM) and incubated in the designated microwells for 1 h at room temperature. Microwells were aspirated and subsequently washed with Wash Buffer (11×). To detect the bound IDO1 protein, Alkaline Phosphatase (AP)-conjugated Anti-6×HIS TAG® antibody [HIS-1] (ab49746, Abcam) was prepared at 1:10,000 dilution and added to the microwells for 1 h at room temperature. The plate was aspirated and washed with Wash Buffer (5×). ATTOPHOS® AP Fluorescent Substrate System (S1000, Promega) was employed to develop the microwells. Using an excitation wavelength of 430 nm, fluorescent emission at 535 nm was recorded by Beckman Coulter DTX880 photometer. Titration curves were fit using a four-parameter regression curve fitting program to determine EC50 values.
For these assays, a dilution series of His-tagged IDO1 human recombinant protein was captured using the macrocyclic peptide ligands immobilized on a NEUTRAVIDIN®-coated plate. […] The sequences of the peptide ligands are listed in Table 1, where D-amino acids are denoted in lowercase, Me-Trp=1-methyl-L-tryptophan, and F-Phe=4-fluoro-L-phenylalanine. Chemical structures are shown below Table 1.
The D-alanine substituted, biotin-PEG3-modified macrocycles were tested in the IDO1 ELISA (Affinity assay). For these assays, a dilution series of His-tagged IDO1 human recombinant protein was captured using macrocycles immobilized on a NEUTRAVIDIN®-coated plate.

recombinant human IDO1 = target: T2, recombinant human IDO1 (Homo sapiens, UniProt P14902); assay: IDO1 Fluorogenic Inhibitor Screening Assay (enzyme inhibition); assay type: biochemical
T2 construct: purchased BPS Biosciences 72037
Method: The IDO1 Fluorogenic Inhibitor Screening Assay Kit (72037, BPS Biosciences) was used to measure the enzyme inhibition of human IDO1 in the presence of macrocyclic peptide ligands. IDO1 catalyzes the conversion of the essential amino acid L-tryptophan (L-Trp) to N-formylkynurenine (NFK). In the assay, the test inhibitor and enzyme were added to a sample containing L-Trp substrate. After incubation for 1 h at room temperature, 20 μL Fluorescence Solution was added and incubated at 37° C. for 4 h to produce a fluorescent product. Activity was measured by reading sample fluorescence at λ=510 nm following excitation of the reaction product at λ=400 nm.

[2] = 2 μM biotinylated macrocycle immobilized, human IDO1 titrated 200 to 0 nM, read-out: EC50, sandwich ELISA for human IDO1 protein against biotin-PEG3-modified macrocycle

T1 sequence (P14902 whole entry): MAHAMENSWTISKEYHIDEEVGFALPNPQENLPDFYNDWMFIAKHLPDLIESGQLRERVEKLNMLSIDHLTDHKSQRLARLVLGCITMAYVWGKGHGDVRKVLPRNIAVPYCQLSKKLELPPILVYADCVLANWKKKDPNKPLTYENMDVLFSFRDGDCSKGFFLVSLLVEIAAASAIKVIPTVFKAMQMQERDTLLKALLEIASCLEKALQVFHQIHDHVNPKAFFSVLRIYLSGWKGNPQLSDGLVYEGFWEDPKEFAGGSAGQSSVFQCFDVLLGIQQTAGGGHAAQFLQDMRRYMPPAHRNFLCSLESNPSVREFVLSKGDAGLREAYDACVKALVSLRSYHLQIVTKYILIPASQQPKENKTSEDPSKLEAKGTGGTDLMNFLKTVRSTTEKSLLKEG
T2 sequence (P14902 whole entry): as above

For `Cn1cc(C[C@H]2NC(=O)[C@@H](CCCNC(=N)N)NC(=O)[C@@H](Cc3ccccc3)NC(=O)[C@@H](CO)NC(=O)[C@@H](CC(N)=O)NC(=O)[C@@H](NC(=O)COCCOCCOCCNC(=O)CCCC[C@@H]3SCC4NC(=O)NC43)Cc3cn(nn3)CCCC[C@@H](C(N)=O)NC2=O)c2ccccc21` (stereo partly shown) [nsfr(Me-Trp), biotin-PEG3-Cy(nsfr(Me-Trp))] ({X4-AEEEA}-[Pra][dN][dS][dF][dR][dTrp(1-Me)][Lys(N3)]-NH2; triazole 1-7), the EC50 [1, 2] was 124 nM and the EC50 ([1]; Example 9, read-out: Binding affinity (EC50) of prioritized Epitope 1 hits) was 124 nM.

For `N=C(N)NCCC[C@H]1NC(=O)[C@H](Cc2ccc(F)cc2)NC(=O)[C@@H](Cc2c[nH]cn2)NC(=O)[C@@H](CO)NC(=O)[C@@H](CC(N)=O)NC(=O)[C@@H](NC(=O)COCCOCCOCCNC(=O)CCCC[C@H]2SC[C@H]3NC(=O)N[C@H]32)Cc2cn(nn2)CCCC[C@@H](C(N)=O)NC1=O` [nsh(F-Phe)r, biotin-PEG3-Cy(nsh(F-Phe)r)] ({Biotinyl(3aR,4R,6aS)-AEEEA}-[Pra][dN][dS][dH][Phe(4-F)][dR][Lys(N3)]-NH2; triazole 1-7), the EC50 [1, 2] was 68 nM.

For `NC(=O)[C@@H]1CCCCn2cc(nn2)C[C@H](NC(=O)COCCOCCOCCNC(=O)CCCC[C@@H]2SC[C@@H]3NC(=O)N[C@@H]32)C(=O)N[C@H](CO)C(=O)N[C@H](Cc2c[nH]c3ccccc23)C(=O)N[C@H](Cc2c[nH]c3ccccc23)C(=O)N[C@@H](Cc2ccc(F)cc2)C(=O)N1` [sww(F-Phe), Biotin-PEG3-Cy(sww(F-Phe))] ({Biotin-AEEEA}-[Pra][dS][dW][dW][Phe(4-F)][Lys(N3)]-NH2; triazole 1-6), the “Binding to human IDO1 by ELISA, in words” value [1] was “superior to the other 4-mers generated”.

Work on `CC(=O)N[C@H]1Cc2cn(nn2)CCCC[C@@H](C(N)=O)NC(=O)[C@@H](Cc2ccc(C)cc2)NC(=O)CNC(=O)[C@@H](C(C)(C)C)NC(=O)[C@@H](Cc2ccc(Oc3ccccc3)cc2)NC(=O)[C@@H](Cc2c[nH]c3ccccc23)NC1=O` [w(Ph-Tyr)(Me-Val)G(Me-Phe)] (Ac-[Pra][dW][X6][dTle]G[dPhe(4-Me)][Lys(N3)]-NH2; triazole 1-7) yielded an EC50 ([1]; read-out: Binding affinity (EC50)) of 18 nM.

`C[C@H]1NC(=O)[C@@H](CCCNC(=N)N)NC(=O)[C@@H](Cc2c[nH]c3ccccc23)NC(=O)[C@@H](NC(=O)COCCOCCOCCNC(=O)CCCC[C@H]2SC[C@H]3NC(=O)N[C@H]32)Cc2cn(nn2)CCCC[C@@H](C(N)=O)NC(=O)[C@@H](Cc2ccc(O)cc2)NC1=O` [wray, Biotin-PEG3-Cy(wray)] ({Biotinyl(3aR,4R,6aS)-AEEEA}-[Pra][dW][dR][dA][dY][Lys(N3)]-NH2; triazole 1-6) was tested, and the “Binding to human IDO1 by ELISA, in words” value [1] was “less potent binders”.

In the case of `C[C@H]1NC(=O)[C@@H](CCCNC(=N)N)NC(=O)[C@@H](Cc2ccc(O)cc2)NC(=O)[C@@H](NC(=O)COCCOCCOCCNC(=O)CCCC[C@H]2SC[C@H]3NC(=O)N[C@H]32)Cc2cn(nn2)CCCC[C@@H](C(N)=O)NC(=O)[C@@H](Cc2ccc(O)cc2)NC1=O` [yray, Biotin-PEG3-Cy(yray)] ({Biotinyl(3aR,4R,6aS)-AEEEA}-[Pra][dY][dR][dA][dY][Lys(N3)]-NH2; triazole 1-6), the “Binding to human IDO1 by ELISA, in words” value [1] is reported as “less potent binders”.

“Inh-PEG6-wyvay ([dW][dY][dV][dA][dY]; also: IDO1 inhibitor via PEG6 linker)” was tested, and the “IDO1 inhibition potency relative to the small molecule (Inh) alone, in words” value (recombinant human IDO1) was “an order of magnitude more potent than the small molecule”.

For PEG4, the “IDO1 inhibition potency relative to the small molecule (Inh) alone, in words” value (recombinant human IDO1) was “less active than the small molecule alone”.

Work on “nlf(Me-Trp)(F-Phe)-Ge-VHL: Epitope 2 peptide ligand linked to VHL E3 ligase ligand ([dN][dL][dF][Trp(1-Me)][Phe(4-F)]; also: Ge linker to VHL E3 ligase ligand)” yielded an EC50 ([1]; binding analysis of VHL-linked Epitope 2 ligand, read-out: EC50) of 30 nM.
